Non-standard residues stand in square brackets, D forms with d. Residues, ends and D or L forms follow the SMILES beside them. *: point of attachment. Palmitoyl = CCCCCCCCCCCCCCCC(=O)*; Lauroyl = CCCCCCCCCCCC(=O)*; Octanoyl = CCCCCCCC(=O)*
Each compound was assayed against T1, bombesin receptor (Mus musculus, UniProt P21729) (assay: Affinity for the bombesin receptor by competition at the receptor for iodinated GRP (125I-GRP), pancreas membranes). Details: competition with 125I-GRP, 90 minutes at room temperature, read-out: Bombesin Receptor Binding (Example 5).
T1 construct: The pancreata from one or more mice were pooled, minced, and homogenized; from tissue; host or cells: mouse pancreas
T1 sequence (P21729 whole entry): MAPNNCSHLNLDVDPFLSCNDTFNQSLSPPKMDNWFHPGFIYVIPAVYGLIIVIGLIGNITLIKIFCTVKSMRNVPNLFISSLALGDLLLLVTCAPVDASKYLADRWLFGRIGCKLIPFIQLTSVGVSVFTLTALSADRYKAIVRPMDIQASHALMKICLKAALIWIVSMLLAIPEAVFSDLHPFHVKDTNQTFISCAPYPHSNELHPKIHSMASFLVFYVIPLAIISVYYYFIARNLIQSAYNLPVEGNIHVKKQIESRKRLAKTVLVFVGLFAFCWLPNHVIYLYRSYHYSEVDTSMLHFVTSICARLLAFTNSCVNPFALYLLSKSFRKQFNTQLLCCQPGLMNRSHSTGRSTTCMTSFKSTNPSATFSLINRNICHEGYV
Design: species or system mice
Protocol: The pancreata from one or more mice were pooled, minced, and homogenized in 50 mM HEPES (pH 7.4) containing 120 mM NaCl and 5 mM KCl at 4°C and centrifuged at 37,500 X g for 15 minutes. The pellet was resuspended in 50 mM HEPES (pH 7.4) containing 10 mM EDTA and 300 mM KCl and incubated for 30 minutes at 4°C. The suspension was centrifuged as above and the pellet was washed two times in 50 mM HEPES (pH 7.4) containing protease inhibitors (10 µM phenylmethylsulfonyl fluoride, 1 µM thiorphan, 40 µg/ml bacitracin, 10mM iodoacetic acid and 4 µg/ml leupeptin), and again centrifuged. The tissue was then resuspended in incubation buffer (1ml per 4 mg pancreas) and incubated for 15 minutes at room temperature, then 250 µl was added to each assay tube to commence the assay. The assay tubes contained incubation buffer consisting of 50 mM HEPES (pH 7.4), 0.5% BSA, protease inhibitors, 2 mM MnCl2, 1 µM somatostatin, and concentrations of ^125I-GRP and peptides as needed in a final volume of 500 µl. The assay was allowed to proceed to equilibrium for 90 minutes at room temperature. After this time, the contents of each tube was rapidly filtered over Whatman GF/B filters presoaked in 0.1% polyethyleneimine and the filters were rapidly washed three times with ice-cold 50 mM HEPES (pH 7.4). Filter-bound radioactivity was quantitated in a gamma counter. Competition of iodinated GRP binding by test compounds or standards was expressed as a percentage of ^125I-GRP binding in the absence of peptide. Affinity and maximal binding were calculated with Ligand (Biosoft, Cambridge, UK).

Compound | Kd
CCCCCCCC(=O)N[C@@H](CCC(N)=O)C(=O)N[C@@H](Cc1c[nH]c2ccccc12)C(=O)N[C@@H](C)C(=O)N[C@H](C(=O)N[C@H](C)C(=O)N[C@@H](Cc1c[nH]cn1)C(=O)N[C@@H](CC(C)C)C(N)=O)C(C)C [Example 1, N-(n-Octanoyl)-Gln-Trp-Ala-Val-ala-His-Leu-NH2] (Octanoyl-QWAV[dA]HL-NH2) | ≤ 50 nM
CCCCCCCCCCCC(=O)N[C@@H](CCC(N)=O)C(=O)N[C@@H](Cc1c[nH]c2ccccc12)C(=O)N[C@@H](C)C(=O)N[C@H](C(=O)N[C@H](C)C(=O)N[C@@H](Cc1c[nH]cn1)C(=O)N[C@@H](CC(C)C)C(N)=O)C(C)C [Example 2, N-(Lauroyl)-Gln-Trp-Ala-Val-ala-His-Leu-NH2] (Lauroyl-QWAV[dA]HL-NH2) | ≤ 500 nM
CCCCCCCCCCCCCCCC(=O)N[C@@H](CCC(N)=O)C(=O)N[C@@H](Cc1c[nH]c2ccccc12)C(=O)N[C@@H](C)C(=O)N[C@H](C(=O)N[C@H](C)C(=O)N[C@@H](Cc1c[nH]cn1)C(=O)N[C@@H](CC(C)C)C(N)=O)C(C)C [Example 3, N-(Palmitoyl)-Gln-Trp-Ala-Val-ala-His-Leu-NH2] (Palmitoyl-QWAV[dA]HL-NH2) | ≤ 500 nM
CCCCCCCC(=O)N[C@@H](CCC(N)=O)C(=O)N[C@@H](Cc1c[nH]c2ccccc12)C(=O)N[C@@H](C)C(=O)N[C@H](C(=O)N[C@H](C)C(=O)N[C@@H](Cc1c[nH]cn1)C(N)=O)C(C)C [Example 4, N-(n-Octanoyl)-Gln-Trp-Ala-Val-ala-His-NH2] (Octanoyl-QWAV[dA]H-NH2) | ≤ 50 nM

From patent EP0468497B1, “Peptide-antagonists of bombesin/GRP” (MERRELL PHARMACEUTICALS INC., priority 1990, dated 1992)
